Read-outs that look alike come from different tables or passages of the source.
Assays:
[1] = system: blood platelets (platelet rich, citrated, human blood plasma); assay: inhibition of platelet aggregation in platelet rich, citrated human blood plasma (aggregometer), agonist ADP or collagen; assay type: cell-based; conditions: for IC50: agonist ADP (10 μg), read-out: ID50 (the source's name)
[2] = system: blood platelets (platelet rich, citrated, human blood plasma); assay: as above; assay type: cell-based; conditions: for IC50: agonist COLLAGEN (2 μg), read-out: ID50 (the source's name)
Source text: (§1) Various substances are known to cause blood platelets to aggregate which in turn can result in blood clots in the blood circulatory system of living animals. Certain other compounds are known to prevent blood platelet aggregation and accordingly are known as antithrombotic agents, while other compounds prevent clotting of aggregated platelets and are called anticoagulants. Both are used in the treatment of phlebitis, stroke, coronary thrombosis, and arteriosclerosis. In a typical test to determine antithrombotic activity, the suspected antithrombotic substance is mixed with a suspension of blood platelets, incubated for a few minutes, and then the suspension is treated with a known amount of a known agonist (agents inducing aggregation). The effectiveness of the suspected antithrombotic is compared to a control which has been treated with the agonist but which has not been treated with the antithrombotic and a quantitative measure of effectiveness is determined by ascertaining the concentration of suspected antithromobotic necessary to reduce by 50% the extent of platelet aggregation compared to the control. This measurement is termed the ID50 of the antithrombotic. Typical agonists include collagen and ADP (adenosine diphosphate).
Platelet rich, citrated, human blood plasma (250,000 platelets/μL) was prepared and divided into 0.45 ml aliquots for use in determining ID50 levels of the subject compounds. The aliquots were treated with various quantities of the compounds of the instant invention and thereafter were preincubated by maintaining in an aggregometer curvette for two (2) minutes at 37° C. with stirring (950 RPM). Control aliquots free of antithrombotic component, were maintained and subjected to each of the processing steps. Each aliquot was then treated with an agonist in this instance being an appropriate amount of ADP (10 μmole) or collagen (2 μg). Aggregation in each aliquot was monitored for a period of 3-5 minutes and percent aggregation was quantified by a dual channel aggregometer which ascertained percent aggregation by comparision against a control of light transmittance through the sample.

[3] = system: S. Aureus bacteria; assay: antibacterial activity against S. Aureus; assay type: cell-based
[4] = system: blood platelets; assay: antithrombotic activity in combination with other known antithrombotics
Source text: as §1

With C=CCSSCCC[S+]([O-])CC=C (stereo not shown) [Aliquot 3] the IC50 ([1]; Homo sapiens, Platelet) was > 400 µM and the IC50 ([2]; Homo sapiens, Platelet) was > 400 µM.

With C=CCSS/C=C/C[S+](C)[O-] (stereo not shown) [Aliquot 4] the IC50 ([1]; Homo sapiens, Platelet) was > 400 µM and the IC50 ([2]; Homo sapiens, Platelet) was 374 µM.

With CSS/C=C/C[S+](C)[O-] (stereo not shown) [Aliquot 5, (E) 2,3,7-trithiaocta-4-ene 7-oxide] the IC50 ([1]; Homo sapiens, Platelet) was > 400 µM and the IC50 ([2]; Homo sapiens, Platelet) was 332 µM.

For C=CCS(=O)(=O)C/C=C/SS(=O)(=O)CC=C [Aliquot 8, (E) 4,5,9-trithiadodeca-1,6,11-triene 4,4,9,9-tetraoxide], the “effect on platelet aggregation” value ([1]; at levels of 40 μg/ml of ADP) was “appears to act as an agonist”.

C=CCS(=O)(=O)C/C=C/SS(=O)(=O)CC=C [Aliquot 8] was tested, and the “ID50 columns: result in words” value ([2]; printed across the ADP (10 μg) and COLLAGEN (2 μg) columns) was “Causes Aggregation”.

For C=CCSS/C=C/C[S+]([O-])CCCC(=O)OCC (stereo not shown) [Aliquot 9], the IC50 ([1]; Homo sapiens, Platelet) was 388 µM and the IC50 ([2]; Homo sapiens, Platelet) was 388 µM.

C=CCS(=O)(=O)C/C=C/SSCCC [Aliquot 10] gave an IC50 ([1]; Homo sapiens, Platelet) of 210 µM.

C=CCS(=O)(=O)C/C=C/SSC/C=C/C [Aliquot 11] showed an IC50 ([1]; Homo sapiens, Platelet) of 208 µM.

Compound C=CCS(=O)(=O)C/C=C/SSCc1ccccc1 [Aliquot 12] has an IC50 ([1]; Homo sapiens, Platelet) of 204 µM.

C=CCS(=O)(=O)C/C=C/SSC/C=C\CCC [Aliquot 13] was tested, and the IC50 ([1]; Homo sapiens, Platelet) was 280 µM.

C=CCS(=O)(=O)C/C=C/SSC/C=C/CCC [Aliquot 14] was tested, and the IC50 ([1]; Homo sapiens, Platelet) was > 400 µM.

For C=CC[S+]([O-])CC=CSS(=O)(=O)CC=C (stereo not shown) [Example 5, (E,Z)-4,5,9-trithiadodeca-1,6,11-triene 4,4,9-trioxide], the “growth of S. Aureus bacteria” value ([3]; 0.25 m. molar concentration) was “growth of the bacteria was inhibited” and the “killing of S. Aureus bacteria” value ([3]; 1.0 m. molar concentration) was “killing of the bacteria”.

For COc1ccc2c(c1)c(CC(=O)O)c(C)n2C(=O)c1ccc(Cl)cc1 [Indomethacin, indomethacin], the “antithrombotic activity when combined with various compounds of the invention” value [4] was “particularly enhanced antithrombotic activity”.

In the case of CCCCC[C@H](O)/C=C/[C@@H]1[C@H]2C/C(=C/CCCC(=O)O)O[C@H]2C[C@H]1O [prostacyclin], the “antithrombotic activity when combined with various compounds of the invention” value [4] is reported as “particularly enhanced antithrombotic activity”.

“(E)-4,5,9-trithiadodeca-6,11-diene 9,9 dioxide [Aliquot 10]” gave an IC50 [1] of 182 µM.

Work on “(E,Z)-4,5,9-trithiadodeca-1,6,11-triene 9,9dioxide [Example 2]” yielded an IC50 [1] of 209 µM and an IC50 [2] of 214 µM.

Source: US4643994A, “Novel organic trithio oxides and method for the preparation thereof” (The Research Foundation of State University of New York, priority 1984, dated 1987)
